According to the supplement of paper PMC11616607:

Key:
Test in all cases: drug sensitivity score (DSS) from 5-point dose-response viability curve (DSS (area-under-curve based score)); higher = more sensitive (stronger growth inhibition or killing); extreme values may be limits of the assay
Conditions in all cases: exposure time: 72 h; concentration range: 5 concentrations over 10,000-fold range
CAOV3 = system: CAOV3
Summary of the method: (§1)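 Drugs in DMSO or water were acoustically dispensed (Echo 550) into 384-well plates at five concentrations across a 10,000-fold range. Ovarian cancer and normal ovarian cells (1,500 per well) were then added, incubated for 3 days at 37°C with 5% CO2, and read for viability by CellTiter-Glo luminescence on a PHERAstar FS. From these readings, Breeze software derived a drug sensitivity score per cell line and drug, with higher values meaning more sensitive and zero meaning no response.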

COV318 = system: COV318
Summary of the method: as §1

COV362 = system: COV362
Summary of the method: as §1

HOSE1C = system: HOSE1C
Summary of the method: as §1

HOSE2C = system: HOSE2C
Summary of the method: as §1

JHOS2 = system: JHOS2
Summary of the method: as §1

Kuramochi = system: Kuramochi
Summary of the method: as §1

OV90 = system: OV90
Summary of the method: as §1

OVCAR4 = system: OVCAR4
Summary of the method: as §1

OVCAR5 = system: OVCAR5
Summary of the method: as §1

OVCAR8 = system: OVCAR8
Summary of the method: as §1

Ovsaho = system: Ovsaho
Summary of the method: as §1

Row | Structure (SMILES) | drug sensitivity score (CAOV3) | drug sensitivity score (COV318) | drug sensitivity score (COV362) | drug sensitivity score (HOSE1C) | drug sensitivity score (HOSE2C) | drug sensitivity score (JHOS2) | drug sensitivity score (Kuramochi) | drug sensitivity score (OV90) | drug sensitivity score (OVCAR4) | drug sensitivity score (OVCAR5) | drug sensitivity score (OVCAR8) | drug sensitivity score (Ovsaho)
1 | COc1ccc(-c2ccc3c(N4CCOC[C@@H]4C)nc(N4CCOC[C@@H]4C)nc3n2)cc1CO [AZD8055] | 15.6 | 13.6 | 6.4 | 20.7 | 16.2 | 14.4 | 15.6 | 20.8 | 17.5 | 18.4 | 17.2 | 16.9
2 | N#Cc1ccc2[nH]c(O)c(-c3ccc(CN4CCOCC4)cn3)c2c1 [AZD-1080] | 0.9 | 0 | 0 | 0 | 0.3 | 0 | 0 | 0 | 0 | 0 | 0 | 0
3 | Cc1ncc(-c2ccnc(Nc3ccc(S(C)(=O)=O)cc3)n2)n1C(C)C [AZD-5438] | 4.4 | 2.9 | 2.8 | 7 | 2 | 7.9 | 6.8 | 4.4 | 2.9 | 9.2 | 8.4 | 8.1
4 | Cc1cc([C@@H](C)Nc2ccccc2C(=O)O)c2nc(N3CCOCC3)cc(=O)n2c1 [AZD-6482] | 2.3 | 0.1 | 0 | 0.3 | 1.2 | 0 | 6 | 0 | 1.6 | 0.1 | 0.7 | 7.6
5 | C[C@@H](Nc1cc(F)cc(F)c1)c1cc(C(=O)N(C)C)cc2c(=O)cc(N3CCOCC3)oc12 [AZD-8186] | 2.1 | 0.7 | 0 | 0.1 | 0.3 | 0.8 | 7.1 | 0.1 | 3.1 | 1.9 | 0.6 | 6.3
6 | CCN1CCN(Cc2ccc(Nc3ncc(F)c(-c4cc(F)c5nc(C)n(C(C)C)c5c4)n3)nc2)CC1 [Abemaciclib] | 0.4 | 1 | 1.5 | 1.6 | 0.7 | 5.5 | 2.5 | 1.5 | 0 | 7.4 | 0.7 | 3.2
7 | CN(C)Cc1c(C(=O)NCCOc2ccc(C(=O)NO)cc2)oc2ccccc12 [Abexinostat] | 13.7 | 10.1 | 5.6 | 24.1 | 20 | 11.8 | 14.6 | 16.5 | 10.5 | 21.7 | 19.9 | 10
8 | C[C@]12CC[C@H](O)CC1=CC[C@@H]1[C@@H]2CC[C@]2(C)C(c3cccnc3)=CC[C@@H]12 [Abiraterone] | 0 | 0 | 0 | 0.1 | 0 | 0 | 0 | 0.5 | 0.3 | 0 | 0 | 0
9 | CC#CC(=O)N1CCC[C@H]1c1nc(-c2ccc(C(=O)Nc3ccccn3)cc2)c2c(N)nccn12 [Acalabrutinib] | 0 | 3.5 | 0.3 | 0 | 0 | 0.8 | 6.2 | 0 | 2.1 | 0.2 | 0 | 1
10 | COc1cc(C)c(/C=C/C(C)=C/C=C/C(C)=C/C(=O)O)c(C)c1C [Acitretin] | 0 | 0 | 0 | 0.1 | 0 | 1.3 | 0 | 0.2 | 0 | 0 | 0 | 0
11 | CN(C)C/C=C/C(=O)Nc1cc2c(Nc3ccc(F)c(Cl)c3)ncnc2cc1O[C@H]1CCOC1 [Afatinib] | 8.2 | 0 | 1.3 | 0 | 0 | 2.7 | 2.3 | 0 | 1 | 3.4 | 0.3 | 3.2
12 | Cn1ncc(Cl)c1-c1cc(C(=O)N[C@H](CN)Cc2cccc(F)c2)sc1Cl [Afuresertib] | 0.8 | 1.8 | 0 | 2.9 | 2.8 | 0 | 4 | 0.9 | 0.5 | 1.2 | 0.5 | 1.5
13 | COc1cccc2c1C(=O)c1c(O)c3c(c(O)c1C2=O)C[C@@](O)(/C(CO)=N/NC(=O)CCCCCN1C(=O)C=CC1=O)C[C@@H]3O[C@H]1C[C@H](N)[C@H](O)[C@H](C)O1 [Aldoxorubicin] | 9.2 | 3.8 | 2.2 | 6.8 | 7.4 | 7.3 | 5.8 | 8.3 | 3.2 | 6.5 | 10 | 8.3
14 | CCc1cc2c(cc1N1CCC(N3CCOCC3)CC1)C(C)(C)c1[nH]c3cc(C#N)ccc3c1C2=O [Alectinib] | 0 | 0 | 0 | 0 | 0 | 0 | 0 | 0 | 0 | 1.5 | 0.4 | 0
15 | COc1cc(Nc2ncc3c(n2)-c2ccc(Cl)cc2C(c2c(F)cccc2OC)=NC3)ccc1C(=O)O [Alisertib] | 22.5 | 1.9 | 0 | 8.9 | 5.4 | 0.4 | 3.7 | 5.4 | 4.9 | 6.9 | 9.4 | 3.1
16 | Oc1ncnc2[nH]ncc12 [Allopurinol] | 0 | 0 | 0 | 0 | 0 | 0 | 0 | 0.3 | 0.2 | 0 | 0 | 0

Row | Structure (SMILES) | drug sensitivity score (CAOV3) | drug sensitivity score (COV318) | drug sensitivity score (COV362) | drug sensitivity score (HOSE1C) | drug sensitivity score (HOSE2C) | drug sensitivity score (JHOS2) | drug sensitivity score (Kuramochi) | drug sensitivity score (OV90) | drug sensitivity score (OVCAR4) | drug sensitivity score (OVCAR5) | drug sensitivity score (OVCAR8) | drug sensitivity score (Ovsaho)
17 | Cc1nc(NC(=O)N2CCC[C@H]2C(N)=O)sc1-c1ccnc(C(C)(C)C(F)(F)F)c1 [Alpelisib] | 3.7 | 0.5 | 0 | 2.2 | 3.2 | 0.6 | 2.4 | 1 | 0.9 | 4.2 | 0.3 | 0.4
18 | O=C(Nc1cc(Oc2cc(F)c(NC(=O)C3(C(=O)Nc4ccc(F)cc4)CC3)cc2F)ccn1)C1CC1 [Altiratinib] | 2.7 | 1.7 | 3 | 4.2 | 3.4 | 4.3 | 4.3 | 0 | 3.3 | 6.6 | 6 | 3.6
19 | CN1CC[C@H](c2c(O)cc(O)c3c(=O)cc(-c4ccccc4Cl)oc23)[C@H](O)C1 [Alvocidib] | 14.9 | 11.5 | 12.1 | 18.9 | 11.9 | 14 | 16 | 14.7 | 13.3 | 16.7 | 17.8 | 15.9
20 | CCN(CC)CCNC(=O)c1c(C)[nH]c(/C=C2\C(=O)Nc3ccc(-c4csc(-c5ccccc5)n4)cc32)c1C [Amcasertib] | 0 | 8.8 | 0.5 | 8.8 | 5.2 | 0 | 0 | 0 | 0.8 | 1.3 | 0.6 | 0
21 | CCC1(c2ccc(N)cc2)CCC(=O)NC1=O (configuration not stated) [Aminoglutethimide] | 0.2 | 0 | 0 | 0.2 | 0 | 0 | 0 | 0 | 0 | 0 | 0 | 0
22 | COc1cc(NS(C)(=O)=O)ccc1Nc1c2ccccc2nc2ccccc12 [Amsacrine] | 13.7 | 0.6 | 1 | 13.7 | 16.7 | 3.8 | 0 | 7.3 | 0.2 | 6 | 10 | 5.5
23 | S=C(NCc1ccc2c(c1)OCO2)N1CCN(c2ncnc3c2oc2ccccc23)CC1 [Amuvatinib] | 2.1 | 0.1 | 0 | 0 | 0 | 0 | 0.2 | 3.2 | 0.9 | 1.8 | 7.9 | 0.1
24 | O=C1CN2Cc3c(ccc(Cl)c3Cl)N=C2N1 [Anagrelide] | 0 | 0 | 0 | 0 | 0 | 0 | 0 | 0 | 0 | 0 | 0 | 0
25 | CC(C)(C#N)c1cc(Cn2cncn2)cc(C(C)(C)C#N)c1 [Anastrozole] | 0 | 0 | 0 | 0 | 0 | 0 | 0 | 0 | 0 | 0 | 0 | 0
26 | CNC(=O)c1ccc(N2C(=S)N(c3cnc(C#N)c(C(F)(F)F)c3)C(=O)C23CCC3)cc1F [Apalutamide] | 0 | 0 | 0 | 0 | 0 | 0 | 0 | 0 | 0 | 0 | 0 | 0
27 | N#CC1(c2ccc(NC(=O)c3cccnc3NCc3ccncc3)cc2)CCCC1 [Apatinib] | 0 | 0 | 0 | 0 | 0 | 0 | 0 | 0 | 0 | 0.5 | 0 | 0.3
28 | O=C(Nc1ccc(OC(F)(F)Cl)cc1)c1cnc(N2CC[C@@H](O)C2)c(-c2cc[nH]n2)c1 [Asciminib] | 0 | 0 | 0 | 0 | 0 | 0 | 0.2 | 0 | 0.3 | 0.4 | 0 | 0
29 | CC(C)c1c(C(=O)Nc2ccccc2)c(-c2ccccc2)c(-c2ccc(F)cc2)n1CC[C@@H](O)C[C@@H](O)CC(=O)O [Atorvastatin] | 0.8 | 0 | 0 | 10.1 | 10.8 | 0.3 | 1 | 2.3 | 0 | 0.4 | 3.6 | 5.2
30 | CC(=O)OC[C@H]1O[C@@H]([S-])[C@H](OC(C)=O)[C@@H](OC(C)=O)[C@@H]1OC(C)=O.CCP(CC)CC.[Au+] [Auranofin] | 9.3 | 5 | 0 | 13.3 | 13.3 | 4.1 | 2.9 | 3.5 | 1.7 | 1.3 | 3.4 | 7.8
31 | CNC(=O)c1ccccc1Sc1ccc2c(/C=C/c3ccccn3)n[nH]c2c1 [Axitinib] | 5 | 0 | 0 | 1.9 | 6.2 | 0 | 0.4 | 0.1 | 0.2 | 0.8 | 2 | 0.8
